The target in one data set is T1, hSMVT (Homo sapiens, UniProt Q9Y289).
T1 sequence (Q9Y289 1-635): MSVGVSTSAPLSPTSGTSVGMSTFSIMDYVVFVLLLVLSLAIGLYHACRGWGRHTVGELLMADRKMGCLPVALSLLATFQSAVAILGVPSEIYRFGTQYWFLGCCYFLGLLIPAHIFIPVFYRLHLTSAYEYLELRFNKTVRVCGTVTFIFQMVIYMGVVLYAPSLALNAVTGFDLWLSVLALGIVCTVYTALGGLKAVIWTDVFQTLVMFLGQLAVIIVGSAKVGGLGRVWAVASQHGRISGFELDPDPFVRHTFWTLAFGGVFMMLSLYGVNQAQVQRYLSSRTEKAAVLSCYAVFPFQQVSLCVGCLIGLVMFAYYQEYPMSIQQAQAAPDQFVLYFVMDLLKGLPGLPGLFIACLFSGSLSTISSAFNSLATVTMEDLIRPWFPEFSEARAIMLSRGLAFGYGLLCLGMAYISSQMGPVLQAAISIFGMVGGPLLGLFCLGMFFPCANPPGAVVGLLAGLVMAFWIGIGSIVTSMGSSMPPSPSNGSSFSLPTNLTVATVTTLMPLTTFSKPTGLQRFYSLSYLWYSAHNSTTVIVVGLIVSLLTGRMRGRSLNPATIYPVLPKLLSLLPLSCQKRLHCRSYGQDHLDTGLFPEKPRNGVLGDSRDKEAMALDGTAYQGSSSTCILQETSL
Nature of the data set: Transport currents in SMVT-expressing Xenopus oocytes, normalized to biotin. The class given is cell-based. The conditions noted are these: response relative to biotin, transporter-expressing oocytes, test compound 0.5 mM. From the text: The complete open reading frame of human ATBO+(SLC6A14) and SMVT (SLC5A6) were amplified from human cDNA prepared from liver or intestine mRNA. Gene-specific oligonucleotide primers were designed against Genbank sequences (AF151978 and NM-021095). Amplified PCR products were cloned into a modified version of the mammalian expression vector pcDNA3 (termed pMO) that was engineered to contain the 5′ and 3′ untranslated regions from the Xenopus beta-globin gene. All clones were completely sequenced and tested for function by transient transfection in HEK293 cells.
cRNA for oocyte expression was prepared by linearization of plasmid cDNA and in vitro transcription using T7 polymerase (Epicentre Ampliscribe kit). Xenopus oocytes were prepared and maintained as previously described (Collins et al., PNAS […]:5456-5460 (1997)) and injected with 10-30 ng RNA. Transport currents were measured 2-6 days later using two-electrode voltage-clamp (Axon Instruments). All experiments were performed using a modified oocyte Ringers solution (90 mM NaCl, 2 mM KCl, 1.8 mM CaCl2, 1 mM MgCl2, and 10 mM Na HEPES, pH 7.4; in Na^+-free solutions 90 mM choline chloride was substituted for NaCl). The membrane potential of oocytes was held at −60 mV and current traces acquired using PowerLab software (AD Instruments). Full 7-concentration dose-responses were performed for each compound. […] Half-maximal concentrations were calculated using non-linear regression curve fitting software (Prism) with the Hill co-efficient fixed to 1. To ensure that currents were specific for the over-expressed transporter, all compounds were tested against uninjected oocytes. Since both ATBO+ and SMVT require Na^+ for transport, we confirmed transport specificity by application of the compounds in a Na^+-free solution.
In vitro transport data for selected compounds on hSMVT-expressing cells

Data set [1] is described as follows: Uptake into plasma of Compound V following oral and intracolonic administration. The class given is in vivo, rat. The conditions noted are these: FIG. 4. Here is the method: Rats were obtained commercially and were pre-cannulated in the both the ascending colon and the jugular vein. Animals were conscious at the time of the experiment. All animals were fasted overnight and until 4 hours post-dosing. Prodrugs were administered as a solution (in water or polyethylene glycol 400) directly into the colon via the cannula at a dose equivalent to 25 mg of gabapentin per kg. Blood samples (0.5 mL) were obtained from the jugular cannula at intervals over 8 hours and were quenched immediately by addition of acetonitrile/methanol to prevent further conversion of the prodrug. Blood samples were analyzed as described in the attached sample analysis summary.
FIG. 4 compares uptake into the plasma of Compound V following oral and intracolonic administration. […] The levels from oral and colonic administration cross at about 7 hr.

For the next data set, the system named is Caco-2 cells. Nature of the data set: Caco-2 transport with and without PEPT1/PEPT2 inhibitor Lys(ε-Dansyl)-Leu. The class given is cell-based, human. The conditions noted are these: apical to basolateral, 600 μM Lys(ε-Dansyl)-Leu, FIG. 2. From the text:
Caco-2 cells are derived from the human colon and naturally express a number of colon-expressed transporters. The cells can be used to screen agents or conjugates for capacity to be transported by a colon expressed transporter. By screening agents or conjugates in the presence and absence of the specific PEPT1 and PEPT2 inhibitor Lys(ε-Dansyl)-Leu, one can determine whether PEPT1 and/or PEPT2 is a transporter mediating transport of the agent or conjugate. The role of PEPT1 and/or PEPT2 is shown by a decrease in transport in the presence of Lys(ε-Dansyl)-Leu.
1. Caco-2 cells are plated in either a 12 or 24 well Transwell plate and allowed to differentiate for 19-30 days prior to screening. Day 21 cells are optimal.
2. Dilutions of test compounds with or without Lys(ε-Dansyl)-Leu are prepared in assay buffer. pH 6.0
a. Concentrations of compounds are generally 1 mM with or without 600 μM Lys(Dansyl)-leucine.
b. 20 μM Propidium Iodide added as marker.
3. Spent media is aspirated from apical and basolateral chambers. To the apical chambers, 500 μL of test compound with or without Lys(ε-Dansyl)-Leu is added (125 μL for 24 well Transwell plates).
4. In the basolateral chambers, HBSS buffer pH 7.4 is added (1.5 mL for 12 well format, 875 μL for 24 well format).
5. At each timepoint, 50 μL is sampled from basolateral chambers and transferred to a LC/MS plate (Nunc, PP round bottom).
6. […]
In general terms: Caco-2 monolayers are a common model of the intestinal barrier.

`CC(C)(N)C(=O)NCC1(CC(=O)O)CCCCC1` [Compound V, a-aminoisobutyryl gabapentin]: the “% Max. (Biotin)” value at hSMVT is reported as 36%. For the same compound, the “Plasma peak after colonic dosing compared with oral” value in data set [1] (intracolonic versus oral) is reported as “lower peak at a later time”. Further, in data set [1] (oral versus intracolonic), the “Time at which plasma levels from oral and colonic administration cross” value is given as “about 7 hr”. Further, the “Transport across Caco-2 cells in presence and absence of Lys(ε-Dansyl)-Leu” value in the data set on Caco-2 cells is on record as “inhibited by Lys(ε-Dansyl)-Leu”.

(Values after patent US20030158254A1, “Engineering absorption of therapeutic compounds via colonic transporters” (XenoPort, Inc., priority 2002, published 2003).)
